The term IC50 denotes the midpoint of a concentration-inhibition curve. Higher therefore signals weaker potency.

Common to all, as to assay type: cell-based
In assay [1] the target is T1, mPanx1 (Mus musculus, UniProt Q9JIP4).
T1 construct: gene Panx1
In words: whole-cell patch clamp, CHO cells transfected with mPanx1, single dose […]. The following applies: read-out: I% ^a. A general note: The patch-clamp technique gives a direct electrical read-out from membranes.

In assay [2] the target is T1, mPanx1. Nature of the assay: whole-cell patch clamp, CHO cells transfected with mPanx1, dose-response (IC50 low micromolar, number not given). As to conditions: read-out: I% ^a.
The target in assay [3] is T1, mPanx1. In words: whole-cell patch clamp, CHO cells transfected with mPanx1, dose-response.

T1 sequence (Q9JIP4 whole entry): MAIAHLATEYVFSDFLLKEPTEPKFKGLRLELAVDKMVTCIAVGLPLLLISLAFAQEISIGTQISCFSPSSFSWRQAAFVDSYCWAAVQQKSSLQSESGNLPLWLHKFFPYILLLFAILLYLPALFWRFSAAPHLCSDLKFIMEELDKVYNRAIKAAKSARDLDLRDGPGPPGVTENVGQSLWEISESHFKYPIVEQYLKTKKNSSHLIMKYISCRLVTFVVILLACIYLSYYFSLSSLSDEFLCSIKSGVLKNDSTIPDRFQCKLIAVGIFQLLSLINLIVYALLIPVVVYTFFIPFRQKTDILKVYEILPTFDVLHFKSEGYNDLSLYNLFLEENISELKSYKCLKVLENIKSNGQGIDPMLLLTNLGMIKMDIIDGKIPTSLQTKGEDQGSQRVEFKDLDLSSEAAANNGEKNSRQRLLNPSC

For the molecule `NS(=O)(=O)c1ccc2c(c1)c(=O)c(C(=O)O)cn2Cc1ccc(C(=O)O)cc1` [5b, 1-(4-Carboxybenzyl)-4-oxo-6-sulfamoyl-1,4-dihydroquinoline-3-carboxylic acid], in assay [1], the inhibition at 50 µM was 48.8 ± 5.9%.
Same read-out and setting: for `CCN(CC)S(=O)(=O)c1ccc2c(c1)c(=O)c(C(=O)O)cn2Cc1ccccc1` [12a, 1-Benzyl-6-(N,N-diethylsulfamoyl)-4-oxo-1,4-dihydroquinoline-3-carboxylic acid] the value was 54.6 ± 6%; for `CCN(CC)S(=O)(=O)c1ccc2c(c1)c(=O)c(C(=O)O)cn2Cc1ccc(C(=O)O)cc1` [12b, 1-(4-Carboxybenzyl)-6-(N,N-diethylsulfamoyl)-4-oxo-1,4-dihydroquinoline-3-carboxylic acid], 73.2 ± 11.9%.
Same read-out and setting: for `CCN(CC)S(=O)(=O)c1ccc2c(c1)c(=O)c(C(=O)O)cn2Cc1ccc(S(N)(=O)=O)cc1` [12c, 6-(N,N-Diethylsulfamoyl)-4-oxo-1-(4-sulfamoylbenzyl)-1,4-dihydroquinoline-3-carboxylic acid] the value was 49.5 ± 6%.
Regarding `CCCN(CCC)S(=O)(=O)c1ccc2c(c1)c(=O)c(C(=O)O)cn2Cc1ccc(C(=O)O)cc1` [12e, 1-(4-Carboxybenzyl)-6-(N,N-dipropylsulfamoyl)-4-oxo-1,4-dihydroquinoline-3-carboxylic acid], the inhibition at 50 µM in assay [2] was found to be 84.8 ± 4.4%.
In assay [3], `CCCN(CCC)S(=O)(=O)c1ccc2c(c1)c(=O)c(C(=O)O)cn2Cc1ccc(S(N)(=O)=O)cc1` [12f, 6-(N,N-Dipropylsulfamoyl)-4-oxo-1-(4-sulfamoylbenzyl)-1,4-dihydroquinoline-3-carboxylic acid] had an IC50 of 2.7 µM.
Consider `CCCN(CCC)S(=O)(=O)c1ccc2c(c1)c(=O)c(C(=O)O)cn2CCc1ccccc1` [12g, 6-(N,N-Dipropylsulfamoyl)-4-oxo-1-phenethyl-1,4-dihydroquinoline-3-carboxylic acid], for which the inhibition at 50 µM in assay [1] was determined as 57.2 ± 8.5%.
Turning to `O=C(O)c1ccc(CN(Cc2ccc(C(=O)O)cc2)S(=O)(=O)c2ccc3c(c2)c(=O)c(C(=O)O)cn3Cc2ccc(C(=O)O)cc2)cc1` [compound 7, 4,4′-{[((3-carboxy-1-(4-carboxybenzyl)-4-oxo-1,4-dihydroquinolin-6-yl)sulfonyl)azanediyl]bis(methylene)} dibenzoic acid], in assay [2], the inhibition at 50 µM amounted to 79.7 ± 7.2%.

The values are drawn from PMC12114274, “Synthesis of 3-Carboxy-6-sulfamoylquinolones and Mefloquine-Based Compounds as Panx1 Blockers: Molecular Docking, Electrophysiological and Cell Culture Studies” (Molecules, 2025).
